Consider two molecules from PMC10877577 (ACS Chemical Biology, 2024).

Data set [1] has as its system MinoCAR-transduced PBMC against SupT1-EGFR+ target cells. It counts as cell-based. Conditions: 0.1, 1 and 10 μM, 24 h, 1:2 E/T. As to the method:
Transduced CAR T cells were determined by staining for the transduction marker RQR8 and normalized by the addition of nontransduced T cells. Effector cells were cocultured with 5.0 × 10^4 number of target cells (SupT1-NT, SupT1-EGFR+, SKOV3-mKate) to achieve the desired effector cell to target ratio. […] Cocultures were incubated for 24–72 h at 37 °C and 5% CO2. After incubation, plates were centrifuged at 400g for 5 min, and the supernatant containing secreted cytokines was collected for cytokine analysis. Cells were stained with anti-hCD34-APC and anti-CD3-PeCy7 to differentiate effector T cells and target cells. Cells were washed with 300 μL o PBS and stained with SYTOX Blue Dead Cell Stain dye. The percentage of target cell survival was measured relative to the number of live target cells cocultured with nonspecific CAR T cells or nontransduced PBMCs.

The test system of data set [2] is aMinoC22 sdAb. The data set can be described thus: SPR of related small molecules against aMinoC22. The class given is binding, alpaca. Conditions: molecules closely related to minocycline. As for the experimental part:
(§1) Binding assays were carried out using 1x HBS-EP+ running buffer. Various concentrations (2.5 μM with 2-fold serial dilutions) of the analyte were injected for 150 s at 30 μL/min with 150 s dissociation time. Glycine-HCl (pH 2.0) was used as the regeneration buffer for the sensor chips. For the rechallenge experiment, aMinoC1 was immobilized on a CM5 sensor chip and CX7C peptide-Fc conjugates were loaded at 100 nM and injected as the analyte for 150 s at 30 μL/min. Following the injection of peptide-Fc, a small molecule at 1 μM was injected for 300 s at 30 μL/min, using dual injection function on a Biacore 8k instrument, to dissociate the peptide-Fc from the aMinoC1-peptide complex. The system was then washed using HBS-P^+ buffer for 300 s at 30 μL/min prior to rechallenge with peptide-Fc. The cycle was repeated three times following a final dissociation step of 300 s. For the alanine scanning experiments, the anti-minocycline antibody (sdAb-muIgG2a-Fc fusion) was captured on a Protein A series S sensor chip, to a density of 3000 RU. […] Glycine-HCl (pH 1.5) was used as the regeneration buffer. In each case, flow cell 1 was used for reference subtraction, and a “0 concentration” sensogram of buffer alone was used as a double reference subtraction to factor for drift. Data analysis was carried out using Biacore T200 Evaluation Software, version 3.0, and Biacore Insight evaluation software. […]

For data set [3], the target named is TetRB. The following applies: cited from earlier work.
In data set [4] the test system is aMinoC1-peptide complex. Put plainly: SPR rechallenge: small-molecule-driven dissociation of peptide-Fc from immobilized aMinoC1. It counts as binding. Conditions: peptide-Fc 100 nM, small molecule 1 μM. As to the method: Binding assays were carried out using 1x HBS-EP+ running buffer. Various concentrations (2.5 μM with 2-fold serial dilutions) of the analyte were injected for 150 s at 30 μL/min with 150 s dissociation time. Glycine-HCl (pH 2.0) was used as the regeneration buffer for the sensor chips. For the rechallenge experiment, aMinoC1 was immobilized on a CM5 sensor chip and CX7C peptide-Fc conjugates were loaded at 100 nM and injected as the analyte for 150 s at 30 μL/min. Following the injection of peptide-Fc, a small molecule at 1 μM was injected for 300 s at 30 μL/min, using dual injection function on a Biacore 8k instrument, to dissociate the peptide-Fc from the aMinoC1-peptide complex. The system was then washed using HBS-P^+ buffer for 300 s at 30 μL/min prior to rechallenge with peptide-Fc. The cycle was repeated three times following a final dissociation step of 300 s. For the alanine scanning experiments, the anti-minocycline antibody (sdAb-muIgG2a-Fc fusion) was captured on a Protein A series S sensor chip, to a density of 3000 RU. […] Glycine-HCl (pH 1.5) was used as the regeneration buffer. In each case, flow cell 1 was used for reference subtraction, and a “0 concentration” sensogram of buffer alone was used as a double reference subtraction to factor for drift. Data analysis was carried out using Biacore T200 Evaluation Software, version 3.0, and Biacore Insight evaluation software. The 1:1 Langmuir binding model was used to calculate the association (ka), dissociation (kd) rate constants, and equilibrium dissociation constant (KD).

The test system of data set [5] is aMinoC1 sdAb. The data set can be described thus: SPR of peptide-Fc or small-molecule analytes against aMinoC1. Conditions: molecules closely related to minocycline. It counts as binding, alpaca. As for the experimental part: as §1
Data set [6] can be described thus: SPR of anti-minocycline sdAb-Fc clones binding to minocycline. As to the method:
as §1

The nature of data set [7]: nanoDSF thermal unfolding of aMinoC1. The class given is physicochemical. As to the method:
A dye-free protocol was used whereby the intrinsic fluorescence of tryptophan and tyrosine was measured by scanning samples at 330 and 350 nm to determine protein unfolding. […] Melting scan was carried out by setting the run at 1 °C/min temperature increments from 20 to 95 °C. Tm was calculated as first derivative of 350/330 nm ratio.

The nature of data set [8]: Isothermal titration calorimetry of aMinoC1 binding to minocycline. The following applies: sdAb-Fc 2 μM titrated with minocycline 50 μM, 25 °C; read-out: KD (ITC). As to the method: ITC measurements were performed using the PEAQ-ITC nonautomated (MicroCal) at 25 °C. The antibody sample was dialyzed overnight using 5 L of PBS (20 mM Na3PO4, 150 mM NaCl, pH 7.4). […] The concentration of the anti-minocycline sdAb (as murine IgG2a Fc fusion) was determined using extinction coefficients ε280 nm = 31,065 M^–1 cm^–1.

Entries after “also recorded” stand apart in the source; their conditions may differ.

Turning to `CN(C)[C@@H]1C(O)=C(C(N)=O)C(=O)[C@@]2(O)C(O)=C3C(=O)c4c(O)cccc4[C@@](C)(O)[C@H]3C[C@@H]12` [tetracycline], the “effect of other small molecules on MinoCAR cytotoxicity” value in data set [1] is “not affected”. Also, the “binding to aMinoC22 (SPR)” value in data set [2] is “Neither sdAb showed an interaction; also recorded: lack of binding”. The Kd in data set [3] was 2.8 nM. Further, in data set [4], the “GWARA-Fc dissociation from immobilized aMinoC1 on small-molecule injection” value is given as “No enhanced dissociation”; the “peptide-Fc (HWAQA, PWAYS and QWAMM) dissociation from immobilised aMinoC1 on small-molecule injection” value was “No enhanced dissociation”. For the same molecule, the “binding to aMinoC1 (SPR)” value in data set [5] is listed as “Neither sdAb showed an interaction; also recorded: lack of binding; also recorded: without cross-reactivity”.

B1: aMinoC1: anti-minocycline single-domain antibody clone 1 from immunized alpaca, tested as sdAb-Fc (antibody, V domains shown)
VH: QVQLESGGGLVQPGSSLRLSCAASGRTFSSYNIGWFRQAPKEREFVAAISWSGARTYYADSVKGRFTISRDNAKNTVYLQMNSLKPEDTAVYSCAAGRGWGTEAILDYWGQGTQVSSA
With B1, in data set [6], the ka turned out to be 1.13e+06 M⁻¹ s⁻¹ and the kd was 0.036 s⁻¹. The “first unfolding midpoint (Tm50)” value in data set [7] (aMinoC1 alone, PBS pH 7.4) was 79.5 °C. Besides, in data set [7] (minocycline 1 nM to 2.5 mM), the “improvement of Tm50 with minocycline” value is “over 10 °C”. In data set [7] (minocycline ranging from 1 nM to 2.5 mM), the “Tm50 on coincubation with minocycline” value worked out at 89.6 °C. Besides, in data set [8], the dissociation constant (Kd) is 24.9 nM.
